# Reference: paper PMC6067974 (Neuropharmacology, 2018)
# Assays:
# A1AR = settings: read-out: rat Ki, A1AR, ref Alnouri et al., 2015; cited from earlier work
# mouse A2AAR = mouse A2AAR (Mus musculus, UniProt Q60613); settings: read-out: mouse Ki, A2AAR, ref Alnouri et al., 2015; cited from earlier work
# mouse A2BAR [1] = assay: Cell-based assay at mouse A2BAR; settings: EC50 2.8 nM vs Ki 136 nM
# mice [2] = assay: Indirect calorimetry; settings: BAY60-6583 1 mg/kg, i.p.; C57BL/6J mice
# mouse A2BAR [3] = settings: ref van der Hoeven et al., 2011, cited from earlier work
# mice [4] = assay: Telemetric monitoring of Tb and physical activity in mice; format: in vivo, mouse
# mouse A1AR = target: T1, mouse A1AR (Mus musculus, UniProt Q60612); assay: Radioligand binding, mouse A1AR; settings: ratio of rat Ki to mouse Ki at A1AR
# T1 sequence (Q60612 1-326): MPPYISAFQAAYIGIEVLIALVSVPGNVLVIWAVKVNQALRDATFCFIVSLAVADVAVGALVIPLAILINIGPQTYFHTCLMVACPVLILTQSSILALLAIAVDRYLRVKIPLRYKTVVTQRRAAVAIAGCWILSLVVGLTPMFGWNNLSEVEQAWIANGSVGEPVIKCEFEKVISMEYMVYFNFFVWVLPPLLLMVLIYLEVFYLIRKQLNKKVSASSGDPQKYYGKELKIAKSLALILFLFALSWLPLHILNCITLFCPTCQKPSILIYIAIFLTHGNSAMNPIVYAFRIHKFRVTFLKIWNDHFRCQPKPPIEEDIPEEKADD
# [5] = tested on: hypothalamic neurons (Fos); assay: Drug-induced neuronal activation; format: in vivo, mouse; settings: BAY60-6583 0.004 mg/kg i.c.v.; Adora1−/−;Adora3−/− mice; 1 h; vs vehicle
# [6] = target: serotonin transporter (SERT) (Homo sapiens, UniProt P31645); assay: PDSP off-target radioligand binding, serotonin transporter
# [7] = BAY60-6583 0.5–2 mg/kg, i.p., C57BL/6J mice
# serotonin transporter (SERT), sequence (P31645 whole entry): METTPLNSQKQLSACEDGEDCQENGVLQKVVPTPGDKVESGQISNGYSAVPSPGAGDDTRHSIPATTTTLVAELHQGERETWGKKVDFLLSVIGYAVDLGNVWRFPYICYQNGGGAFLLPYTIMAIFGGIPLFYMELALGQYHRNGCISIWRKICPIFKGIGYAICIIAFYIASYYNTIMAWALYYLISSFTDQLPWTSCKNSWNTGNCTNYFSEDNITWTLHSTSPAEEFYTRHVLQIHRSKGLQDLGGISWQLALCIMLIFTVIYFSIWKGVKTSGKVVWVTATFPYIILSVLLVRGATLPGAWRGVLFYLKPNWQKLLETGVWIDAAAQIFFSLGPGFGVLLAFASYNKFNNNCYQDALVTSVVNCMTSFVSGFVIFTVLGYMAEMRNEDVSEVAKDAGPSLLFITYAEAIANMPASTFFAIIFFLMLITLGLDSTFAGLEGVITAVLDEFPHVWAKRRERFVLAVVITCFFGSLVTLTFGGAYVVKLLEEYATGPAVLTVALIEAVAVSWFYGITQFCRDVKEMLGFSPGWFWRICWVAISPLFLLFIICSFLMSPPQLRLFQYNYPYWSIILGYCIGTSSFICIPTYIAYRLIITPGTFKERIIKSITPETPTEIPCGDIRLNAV
# mouse A2AAR, sequence (Q60613 whole entry): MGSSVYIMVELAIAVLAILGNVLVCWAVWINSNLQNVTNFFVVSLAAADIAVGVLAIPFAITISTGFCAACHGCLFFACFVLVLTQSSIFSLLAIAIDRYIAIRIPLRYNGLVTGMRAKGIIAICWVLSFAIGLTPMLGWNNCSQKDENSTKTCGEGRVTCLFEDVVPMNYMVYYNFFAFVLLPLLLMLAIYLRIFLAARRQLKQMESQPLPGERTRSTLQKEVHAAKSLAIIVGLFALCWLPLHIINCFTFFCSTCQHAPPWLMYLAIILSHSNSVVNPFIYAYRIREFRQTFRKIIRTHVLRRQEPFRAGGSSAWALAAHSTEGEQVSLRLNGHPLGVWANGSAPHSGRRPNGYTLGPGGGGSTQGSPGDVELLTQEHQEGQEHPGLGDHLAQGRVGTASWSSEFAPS
structure (smiles),measurement,setting,value
"N#Cc1c(N)nc(SCC(N)=O)c(C#N)c1-c1ccc(OCC2CC2)cc1 [BAY60-6583, 2-[6-amino-3,5-dicyano-4-[4-(cyclopropylmethoxy)phenyl]pyridin-2-ylsulfanyl]acetamide]",Ki,A1AR,514 nM
same,Ki,mouse A2AAR,> 10000 nM
same,EC50 better than the binding affinity at A2BAR,mouse A2BAR [1],50 fold
same,food intake,mice [2],lowered
same,metabolic rate (total energy expenditure),mice [2],lowered metabolic rate
same,respiratory exchange ratio,mice [2],lowered
same,adenosine receptor activation selectivity,"mouse A2BAR [3]; not mouse A1AR, A2AAR, or A3AR",activate only mouse A2BAR
same,EC50,"mouse A2BAR [3]; read-out: EC50 at mouse A2BAR, cell-based assay",2.8 nM
same,Tb response (hypothermia),"mice [4]; BAY60-6583 0.004 mg/kg i.c.v., Adora1−/−;Adora3−/− mice",more modest effects
same,Tb response (hypothermia),"mice [4]; BAY60-6583 0.004 mg/kg, i.c.v., C57BL/6J (WT) mice",caused hypothermia
same,Tb response (hypothermia),"mice [4]; BAY60-6583 0.04 mg/kg i.c.v., Adora1−/−;Adora3−/− mice","profound, prolonged hypothermia"
same,Tb response (hypothermia),"mice [4]; BAY60-6583 1 mg/kg, i.p., Adora2b−/− mice, 1 mg/kg",completely abolished
same,Tb response (hypothermia),"mice [4]; BAY60-6583 1 mg/kg, i.p., KitW−sh/W−sh mice",intact
same,Tb response (hypothermia),mice [4]; [7],dose-dependent hypothermia
same,physical activity,mice [4]; [7],hypoactivity
same,i.c.v. dose as fraction of a similarly hypothermic i.p. dose,"mice [4]; BAY60-6583, i.c.v. vs i.p.",1/150
same,Tb response (hypothermia),"mice [4]; BAY60-6583 i.p., Adora1−/−;Adora3−/− mice, not shown",intact
same,A1AR rat: mouse ratio,mouse A1AR,1.5
same,"Fos immunoreactivity, dorsomedial hypothalamus (DMH)",[5],not significantly different
same,"Fos immunoreactivity, ventromedial hypothalamus (VMH)",[5],not significantly different
same,"Fos immunostaining, paraventricular hypothalamus (PVH)",[5],increased Fos immunostaining
same,"Fos immunostaining, preoptic area (POA)",[5],increased Fos immunostaining
same,Ki,[6],5600 nM
